Legend:
[1] = target: GABAA receptor ([35S]-TBPS binding site, rat brain cortical membranes); experiment: Displacement of [35S]-TBPS binding, rat brain cortical membranes; conditions: 5 μM GABA, 2 nM [35S]-TBPS; ± standard error of the means
Procedure, shortened: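 Rat cortical P2 membranes (0.5 mg/mL protein) incubated 2 h at room temperature with 2 nM [35S]-TBPS, 5 μM GABA and steroid (1 nM–10 μM) in 200 mM NaCl/50 mM potassium phosphate, pH 7.4. Filter-bound radioactivity counted; IC50 from Hill equation fit, triplicate points.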

[2] = system: Xenopus laevis tadpoles; experiment: Tadpole loss of righting (LRR) and swimming (LSR) reflexes; format: in vivo; conditions: 3 h equilibration at room temperature; for EC50: read-out: LSR EC50 (loss of swimming response)
Procedure, shortened: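 Groups of 10 early prelimb-bud Xenopus laevis tadpoles were held for 3 h at room temperature in oxygenated Ringer's containing compound (DMSO ≤0.1%). Loss of righting was scored as failure to right within 5 sec after flipping, and loss of swimming as failure to swim when touched. EC50 came from a Hill equation fit.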

[3] = target: T1, rat α1β2γ2 GABAA Receptor (Rattus norvegicus, UniProt P18508+P62813+P63138, INS375LLRMFSFK); experiment: Xenopus oocyte two-electrode voltage-clamp electrophysiology; format: cell-based; conditions: for Oocyte electrophysiology, ratio of currents in presence/absence of compound, 0.1 μM: 0.1 μM compound co-applied with 2 μM GABA; for Oocyte electrophysiology, ratio of currents in presence/absence of compound, 0.1 μM / Oocyte electrophysiology, ratio of currents in presence/absence of compound, 1 μM / Oocyte electrophysiology, ratio of currents in presence/absence of compound, 10 μM: −70 mV; for Oocyte electrophysiology, ratio of currents in presence/absence of compound, 1 μM: 1 μM compound co-applied with 2 μM GABA; for Oocyte electrophysiology, ratio of currents in presence/absence of compound, 10 μM: 10 μM compound co-applied with 2 μM GABA; for Gating (10 μM), ratio of compound only current/2 μM GABA current: direct current gated by 10 μM compound in the absence of GABA
T1 construct: from linearized pBluescript vectors containing receptor coding regions; expressed in transfected cells; host or cells: Xenopus laevis oocytes injected with in vitro transcribed capped mRNA
Procedure, shortened: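 Oocytes injected with rat α1, β2, γ2L mRNA, voltage-clamped at −70 mV 2-5 days later in ND96. Compounds co-applied with 2 μM GABA for 20 s; peak current ratio with/without compound, n≥4 oocytes. (G): current from 10 μM compound alone, as ratio to 2 μM GABA current.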

T1 sequence (P62813 28-455, stated change not applied): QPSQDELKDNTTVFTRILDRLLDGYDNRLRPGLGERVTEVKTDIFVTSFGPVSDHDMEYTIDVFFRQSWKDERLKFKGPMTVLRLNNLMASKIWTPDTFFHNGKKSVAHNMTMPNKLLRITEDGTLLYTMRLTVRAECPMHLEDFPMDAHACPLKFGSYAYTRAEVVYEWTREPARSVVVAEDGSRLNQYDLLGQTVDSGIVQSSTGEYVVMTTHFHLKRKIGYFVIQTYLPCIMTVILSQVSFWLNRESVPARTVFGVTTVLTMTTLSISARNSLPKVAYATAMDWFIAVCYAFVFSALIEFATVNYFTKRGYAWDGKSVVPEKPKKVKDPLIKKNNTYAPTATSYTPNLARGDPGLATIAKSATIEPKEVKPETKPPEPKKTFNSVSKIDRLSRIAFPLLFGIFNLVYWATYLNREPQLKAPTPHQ
T1 sequence (P63138 26-474, stated change not applied): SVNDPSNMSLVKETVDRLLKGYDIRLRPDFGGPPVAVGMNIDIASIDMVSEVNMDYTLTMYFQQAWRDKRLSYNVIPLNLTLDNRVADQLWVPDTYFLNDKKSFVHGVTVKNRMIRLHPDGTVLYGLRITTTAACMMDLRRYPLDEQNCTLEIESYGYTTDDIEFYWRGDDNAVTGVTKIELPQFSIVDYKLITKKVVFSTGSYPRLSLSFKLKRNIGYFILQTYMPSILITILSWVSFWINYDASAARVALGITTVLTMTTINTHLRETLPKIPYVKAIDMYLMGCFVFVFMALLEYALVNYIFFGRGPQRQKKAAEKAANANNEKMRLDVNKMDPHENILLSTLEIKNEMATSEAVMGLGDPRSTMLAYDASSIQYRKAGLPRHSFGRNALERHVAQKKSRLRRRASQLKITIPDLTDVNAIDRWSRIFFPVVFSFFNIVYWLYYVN
T1 sequence (P18508 with tags, fused parts or gaps INS375LLRMFSFK): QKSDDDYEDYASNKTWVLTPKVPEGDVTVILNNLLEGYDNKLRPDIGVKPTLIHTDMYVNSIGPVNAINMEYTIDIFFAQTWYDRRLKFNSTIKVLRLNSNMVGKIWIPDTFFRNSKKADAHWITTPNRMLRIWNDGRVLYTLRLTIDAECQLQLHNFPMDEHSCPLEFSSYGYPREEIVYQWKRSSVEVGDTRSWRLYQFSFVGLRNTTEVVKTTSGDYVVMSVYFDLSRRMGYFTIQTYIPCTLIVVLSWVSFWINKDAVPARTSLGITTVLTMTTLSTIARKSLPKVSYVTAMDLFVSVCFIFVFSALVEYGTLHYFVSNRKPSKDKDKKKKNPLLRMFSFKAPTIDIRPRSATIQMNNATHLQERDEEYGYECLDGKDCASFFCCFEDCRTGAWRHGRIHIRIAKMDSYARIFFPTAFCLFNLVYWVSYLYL

| SMILES | IC50 [1] | melting point | LRR ED50 (loss of righting response) [2] | EC50 [2] | Oocyte electrophysiology, ratio of currents in presence/absence of compound, 0.1 μM [3] | Oocyte electrophysiology, ratio of currents in presence/absence of compound, 1 μM [3] | Oocyte electrophysiology, ratio of currents in presence/absence of compound, 10 μM [3] | Gating (10 μM), ratio of compound only current/2 μM GABA current [3] | LSR EC50 (loss of swimming response) [2] | Reversibility of steroid effect on GABA current (FIG. 1A) ([3]; 500 nM compound, 2 μM GABA, GABA recovery panel) |
| --- | --- | --- | --- | --- | --- | --- | --- | --- | --- | --- |
| CC12CCC(O)CC1CCC1C2CCC23C=CC(=O)CC2CCC13 (stereo not drawn) [Compound 30b, (3α,5β)-3-Hydroxy-13,24-cyclo-18,21-dinorchol-23-en-22-one] | 4750 ± 970 nM | 196.5 to 199 °C | 560 ± 900 nM | 5480 nM | 1.87 ± 0.24 | 1.80 ± 0.25 | 4.44 ± 0.87 | 0.26 ± 0.31 | – | – |
| C[C@]12CC[C@@H](O)C[C@@H]1CCC1C3CC[C@@H]4[C@H](C#N)CCC[C@]34CCC12 (stereo partly drawn) [Compound 39, (3α,5α,20R)-3-Hydroxy-13,24-cyclo-18,21-dinorcholane-20-carbonitrile] | 1670 ± 138 nM | 213 to 214 °C | 490 ± 90 nM | – | 1.04 ± 0.03 | 1.12 ± 0.08 | 1.70 ± 0.10 | 0.04 ± 0.04 | None @ 10 | – |
| CC12CCC(O)CC1CCC1C2CCC23C(=O)C=CCC2CCC13 (stereo not drawn) [Compound 35a, (3α,5α)-3-Hydroxy-13,24-cyclo-18,21-dinorchol-22-en-24-one] | 197 ± 23 nM | 242 to 243 °C | 1020 ± 0 nM | 2660 nM | 1.98 ± 0.25 | 8.33 ± 0.75 | 9.45 ± 4.19 | 0.07 ± 0.10 | – | readily reversible |

Reference: patent US7781421B2, “Neuroactive 13, 24-cyclo-18, 21-dinorcholanes and structurally related pentacyclic steriods” (Washington University, priority 2003, dated 2010)
